# PMC8815882, “Screening the pandemic response box identified benzimidazole carbamates, Olorofim and ravuconazole as promising drug candidates for the treatment of eumycetoma” (PLoS Neglected Tropical Diseases, 2022)
# Read-outs that look alike come from different tables or passages of the source.
# Tested on: M. mycetomatis genome strain MM55
# Assay: CLSI M38-A2 based in vitro susceptibility screening (XTT or resazurin), growth at fixed concentration
# Type: cell-based, Madurella mycetomatis
# Conditions: Madurella mycetomatis; for Percent fungal survival at 100 µM: read-out: Percentage survival at 100um, 100 uM A (second replicate column)
# [1] = mean of three replicates, read-out: Percentage survival at 25um, 25 uM mean
# [2] = replicate A, read-out: Percentage survival at 25um, 25 um A
# [3] = replicate B, read-out: Percentage survival at 25um, 25 uM B
# [4] = replicate C, read-out: Percentage survival at 25um, 25 uM C
# [5] = mean of three replicates, read-out: Percentage survival at 100um, 100 uM mean
# [6] = replicate 1, read-out: Percentage survival at 100um, 100 uM A (first replicate column)
# [7] = replicate 3, read-out: Percentage survival at 100um, 100 uM A (third replicate column)
# [8] = mean, read-out: Percentage survival at 25um, 25 uM mean
# [9] = mean, read-out: Percentage survival at 100um, 100 uM mean
# [10] = replicate (first column), read-out: Percentage survival at 100um, 100 uM A
# [11] = replicate (second column), read-out: Percentage survival at 100um, 100 uM A
# [12] = replicate (third column), read-out: Percentage survival at 100um, 100 uM A
# [13] = first replicate column, read-out: Percentage survival at 100um, 100 uM A
# [14] = second replicate column, read-out: Percentage survival at 100um, 100 uM A
# [15] = third replicate column, read-out: Percentage survival at 100um, 100 uM A
# [16] = mean of replicates, MM55, read-out: Percentage survival at 25um, 25 uM mean
# [17] = replicate A, MM55, read-out: Percentage survival at 25um, 25 um A
# [18] = replicate B, MM55, read-out: Percentage survival at 25um, 25 uM B
# [19] = replicate C, MM55, read-out: Percentage survival at 25um, 25 uM C
# [20] = mean of replicates, MM55, read-out: Percentage survival at 100um, 100 uM mean
# [21] = replicate 1, MM55, read-out: Percentage survival at 100um, 100 uM A
# [22] = replicate 2, MM55, read-out: Percentage survival at 100um, 100 uM A
# [23] = replicate 3, MM55, read-out: Percentage survival at 100um, 100 uM A
# [24] = mean of replicates, read-out: Percentage survival at 25um, 25 uM mean
# [25] = mean of replicates, read-out: Percentage survival at 100um, 100 uM mean
# [26] = replicate 1, read-out: Percentage survival at 100um, 100 uM A
# [27] = replicate 2, read-out: Percentage survival at 100um, 100 uM A
# [28] = replicate 3, read-out: Percentage survival at 100um, 100 uM A
# [29] = mean of three, M. mycetomatis MM55, read-out: Percentage survival at 25um, 25 uM mean
# [30] = replicate A, M. mycetomatis MM55, read-out: Percentage survival at 25um, 25 um A
# [31] = replicate B, M. mycetomatis MM55, read-out: Percentage survival at 25um, 25 uM B
# [32] = replicate C, M. mycetomatis MM55, read-out: Percentage survival at 25um, 25 uM C
# [33] = mean of three, M. mycetomatis MM55, read-out: Percentage survival at 100um, 100 uM mean
# [34] = replicate 1, M. mycetomatis MM55, read-out: Percentage survival at 100um, 100 uM A (first replicate column)
# [35] = replicate 2, M. mycetomatis MM55
# [36] = replicate 3, M. mycetomatis MM55, read-out: Percentage survival at 100um, 100 uM A (third replicate column)
structure (smiles),measurement,setting,value
CCC(CC)[C@H](NC(C)=O)[C@@H]1[C@H](O)[C@@H](C(=O)O)C[C@H]1NC(=N)N [MMV1593511],activity at 25 µM,[1],92.7%
same,activity at 25 µM,[2],97.1%
same,activity at 25 µM,[3],98.3%
same,activity at 25 µM,[4],82.7%
same,activity at 100 µM,[5],89.1%
same,activity at 100 µM,[6],95.6%
same,Percent fungal survival at 100 µM,replicate 2,83.3%
same,activity at 100 µM,[7],88.3%
CCCCSc1nc(N)c2[nH]c(=O)c(=O)n(Cc3ccccc3)c2n1 [MMV1579783],activity at 25 µM,[8],74.7%
same,activity at 25 µM,[2],95.5%
same,activity at 25 µM,[3],58.6%
same,activity at 25 µM,[4],70%
same,activity at 100 µM,[9],54.9%
same,activity at 100 µM,[10],84%
same,activity at 100 µM,[11],5.11%
same,activity at 100 µM,[12],75.6%
O=c1oc2ccc(Br)cc2cc1CSc1ncc[nH]1 [MMV1782105],activity at 25 µM,[1],79.9%
same,activity at 25 µM,[2],77.1%
same,activity at 25 µM,[3],83.9%
same,activity at 25 µM,[4],78.6%
same,activity at 100 µM,[13],62.8%
same,activity at 100 µM,[5],63.6%
same,activity at 100 µM,[14],59.4%
same,activity at 100 µM,[15],68.5%
CSc1ccc2c(c1)C(N1CCN(C)CC1)Cc1ccccc1S2 (stereo not drawn) [MMV002505],activity at 25 µM,[16],38.4%
same,activity at 25 µM,[17],7.34%
same,activity at 25 µM,[18],101%
same,activity at 25 µM,[19],6.61%
same,activity at 100 µM,[20],3.79%
same,activity at 100 µM,[21],3.82%
same,activity at 100 µM,[22],-0.0923%
same,activity at 100 µM,[23],7.64%
O=S(=O)(NCB(O)O)c1cc2c(Cl)ccc(Cl)c2s1 [MMV1580841],activity at 25 µM,[8],69.4%
same,activity at 25 µM,[2],79.1%
same,activity at 25 µM,[3],74.7%
same,activity at 25 µM,[4],54.3%
same,activity at 100 µM,[9],70.2%
same,activity at 100 µM,[10],88.2%
same,activity at 100 µM,[11],69.4%
same,activity at 100 µM,[12],53%
Nc1nc(N)c2c(Sc3ccccc3)cccc2n1 [MMV021759],activity at 25 µM,[24],88.1%
same,activity at 25 µM,[2],63.3%
same,activity at 25 µM,[3],65.8%
same,activity at 25 µM,[4],135%
same,activity at 100 µM,[25],5.59%
same,activity at 100 µM,[26],-1.97%
same,activity at 100 µM,[27],5.6%
same,activity at 100 µM,[28],13.1%
O=C(c1cc(O)nc2ccccc12)N1CCN(c2ccccc2)CC1 [MMV596723],activity at 25 µM,[1],81.5%
same,activity at 25 µM,[2],85.3%
same,activity at 25 µM,[3],92.8%
same,activity at 25 µM,[4],66.3%
same,activity at 100 µM,[13],83.7%
same,activity at 100 µM,[5],79.5%
same,activity at 100 µM,[14],80.5%
same,activity at 100 µM,[15],74.4%
COC1CC2CCC(C)C(O)(O2)C(=O)C(=O)N2CCCCC2C(=O)OC(C(C)CC2CCC(OCCO)C(OC)C2)CC(=O)C(C)/C=C(\C)C(O)C(OC)C(=O)C(C)CC(C)/C=C/C=C/C=C/1C (stereo not drawn) [MMV639951],activity at 25 µM,[1],61.4%
same,activity at 25 µM,[2],64.2%
same,activity at 25 µM,[3],62.2%
same,activity at 25 µM,[4],57.7%
same,activity at 100 µM,[13],69.2%
same,activity at 100 µM,[5],51.7%
same,activity at 100 µM,[14],46.7%
same,activity at 100 µM,[15],39.4%
O=C(c1nc2c(C(F)(F)F)cc(C3CC3)cn2c1Cl)N1CCN([C@H]2CC[C@H](O)CC2)C(=O)C1 [MMV1634396],activity at 25 µM,[1],94.9%
same,activity at 25 µM,[2],99.5%
same,activity at 25 µM,[3],104%
same,activity at 25 µM,[4],81.4%
same,activity at 100 µM,[13],92.3%
same,activity at 100 µM,[5],86.8%
same,activity at 100 µM,[14],90.6%
same,activity at 100 µM,[15],77.4%
CCCCCCCCCN1C[C@@H](O)[C@H](O)[C@@H](O)[C@@H]1CO [MMV1593513],activity at 25 µM,[1],93.6%
same,activity at 25 µM,[2],92%
same,activity at 25 µM,[3],104%
same,activity at 25 µM,[4],85.1%
same,activity at 100 µM,[5],87.5%
same,activity at 100 µM,[6],91.7%
same,Percent fungal survival at 100 µM,replicate 2,84.5%
same,activity at 100 µM,[7],86.2%
CC(C)C(=O)N[C@H]1[C@H]([C@H](O)[C@H](O)CO)OC(C(=O)O)=C[C@@H]1N=[N+]=[N-] [MMV1782111],activity at 25 µM,[16],95.4%
same,activity at 25 µM,[17],71.1%
same,activity at 25 µM,[18],133%
same,activity at 25 µM,[19],82.3%
same,activity at 100 µM,[20],57.6%
same,activity at 100 µM,[21],71%
same,activity at 100 µM,[22],27.4%
same,activity at 100 µM,[23],74.4%
Cc1c[nH]c(=O)nc1NCc1ccccc1 [MMV1582489],activity at 25 µM,[24],93.3%
same,activity at 25 µM,[2],97.9%
same,activity at 25 µM,[3],91.7%
same,activity at 25 µM,[4],90.3%
same,activity at 100 µM,[25],88.7%
same,activity at 100 µM,[26],101%
same,activity at 100 µM,[27],80.8%
same,activity at 100 µM,[28],84.5%
CCc1nc2ccccn2c1C(=O)NCc1ccccc1 [MMV1663457],activity at 25 µM,[29],64.2%
same,activity at 25 µM,[30],58%
same,activity at 25 µM,[31],69.7%
same,activity at 25 µM,[32],64.8%
same,activity at 100 µM,[33],64.3%
same,activity at 100 µM,[34],52.2%
same,Percent fungal survival at 100 µM,[35],54%
same,activity at 100 µM,[36],86.6%
CC(C)(C)c1cc(C(=O)/C(C#N)=N/Nc2cccc(Cl)c2)no1 [MMV1578571],activity at 25 µM,[24],61%
same,activity at 25 µM,[2],95.6%
same,activity at 25 µM,[3],56.3%
same,activity at 25 µM,[4],31.2%
same,activity at 100 µM,[25],6.1%
same,activity at 100 µM,[26],4.87%
same,activity at 100 µM,[27],4.92%
same,activity at 100 µM,[28],8.51%
O=C(c1ccc(F)cc1)N1CCN2C(=O)c3ccccc3C12c1ccccc1 (stereo not drawn) [MMV1165877],activity at 25 µM,[1],89.2%
same,activity at 25 µM,[2],90%
same,activity at 25 µM,[3],95.6%
same,activity at 25 µM,[4],82.1%
same,activity at 100 µM,[5],76.1%
same,activity at 100 µM,[6],85.4%
same,Percent fungal survival at 100 µM,replicate 2,71.7%
same,activity at 100 µM,[7],71.2%
Oc1ccc(NCc2ccccc2OCc2ccccc2)cc1 [MMV1580504],activity at 25 µM,[1],81.4%
same,activity at 25 µM,[2],86.2%
same,activity at 25 µM,[3],84.4%
same,activity at 25 µM,[4],73.7%
same,activity at 100 µM,[5],8.06%
same,activity at 100 µM,[6],2.17%
same,Percent fungal survival at 100 µM,replicate 2,4.7%
same,activity at 100 µM,[7],17.3%
Nc1ccc(-c2nc3cc(C(F)(F)F)ccc3n2C23CC4CC(CC(C4)C2)C3)cc1 [MMV1634385],activity at 25 µM,[16],82.4%
same,activity at 25 µM,[17],108%
same,activity at 25 µM,[18],85.4%
same,activity at 25 µM,[19],54%
same,activity at 100 µM,[20],57.5%
same,activity at 100 µM,[21],61.2%
same,activity at 100 µM,[22],52.2%
same,activity at 100 µM,[23],59.1%
O=C(Nc1ccc(Cl)c(C(F)(F)F)c1)C(CCCl)C(=O)Nc1ccc(Cl)c(C(F)(F)F)c1 [MMV1580840],activity at 25 µM,[29],56.9%
same,activity at 25 µM,[30],58.8%
same,activity at 25 µM,[31],55.1%
same,activity at 25 µM,[32],56.9%
same,activity at 100 µM,[33],36.8%
same,activity at 100 µM,[34],0.352%
same,Percent fungal survival at 100 µM,[35],58.3%
same,activity at 100 µM,[36],51.8%
N#CCN1C(=O)COc2cc(F)c(N3C(=O)c4ccccc4C3=O)cc21 [MMV1579785],activity at 25 µM,[24],81.2%
same,activity at 25 µM,[2],78.3%
same,activity at 25 µM,[3],91.5%
same,activity at 25 µM,[4],73.8%
same,activity at 100 µM,[25],88.3%
same,activity at 100 µM,[26],83.8%
same,activity at 100 µM,[27],94.2%
same,activity at 100 µM,[28],87%
c1cnc(NCc2ccc(CNc3ncccn3)cc2)nc1 [MMV1580490],activity at 25 µM,[16],71%
same,activity at 25 µM,[17],53.2%
same,activity at 25 µM,[18],76.7%
same,activity at 25 µM,[19],83.1%
same,activity at 100 µM,[20],66.3%
same,activity at 100 µM,[21],67.3%
same,activity at 100 µM,[22],32.6%
same,activity at 100 µM,[23],98.8%
CC1CCc2c(N3CCC(O)CC3)c(F)cc3c(=O)c(C(=O)O)cn1c23 (stereo not drawn) [MMV637659],activity at 25 µM,[24],88.6%
same,activity at 25 µM,[2],77.6%
same,activity at 25 µM,[3],95.3%
same,activity at 25 µM,[4],93%
same,activity at 100 µM,[25],77.8%
same,activity at 100 µM,[26],65.4%
same,activity at 100 µM,[27],81.1%
same,activity at 100 µM,[28],86.9%
